This note sets out measurements from patent US20180213796A1, “PLANT DISEASE CONTROL COMPOSITION AND PLANT DISEASE CONTROL METHOD” (SUMITOMO CHEMICAL COMPANY, LIMITED, priority 2015, published 2018).

Test [1] concerns damping-off fungus (Rhizoctonia solani). The test is described as follows: Test Example 14: corn seed treatment, pot test in soil mixed with damping-off fungus, control value. The note with it: corn seeds, 20 days after. The test is classed as in vivo. As to the method: In a rotary seed treatment machine (trade name: HEGE11, manufactured by […]), corn seeds (variety: yellow dent corn) were treated by smearing treatment using a flowable formulation of the present bacterial strain as obtained in Formulation Example 19, metconazole flowable formulation (40.0% flowable formulation, trade name: Metolock Fungicide, Valent U.S.A. Corporation), a chemical liquid prepared by dissolving tebuconazole in acetone/Tween 20 (weight ratio=95:5) and diluting with water, a chemical liquid prepared by dissolving prothioconazole in acetone/Tween 20 (weight ratio=95:5) and diluting with water, a chemical liquid prepared by dissolving difenoconazole in acetone/Tween 20 (weight ratio=95:5) and diluting with water, a chemical liquid prepared by dissolving triticonazole in acetone/Tween 20 (weight ratio=95:5) and diluting with water, a chemical liquid prepared by dissolving triadimenol in acetone/Tween 20 (weight ratio=95:5) and diluting with water, a chemical liquid prepared by dissolving bromconazole in acetone/Tween 20 (weight ratio=95:5) and diluting with water, so that the soybean seeds retain the present bacterial strain and the compound in the amount shown in Table 4.
Cultivation was carried out in a greenhouse under irrigation (“treated compartment”). The plants were investigated 20 days after for the number of diseased plants, and the disease incidence was calculated by the following “Equation 1”. […] The plants were investigated 20 days after for the number of diseased plants, and the disease incidence was calculated by the following “Equation 1”. The control value of the treated compartment was calculated by the following equation “Equation 2”, based on the disease incidences of the treated compartment and the untreated compartment.
Disease incidence (%)=100×(number of diseased plant/total number of seeded seeds) Equation 1
Control value (%)=100×[(disease incidence in untreated compartment−disease incidence in treated compartment)/disease incidence in untreated compartment] Equation 2 […]

For test [2] the test system is unchanged. The test is described as follows: Test Example 15: soybean seed treatment, pot test in soil mixed with damping-off fungus, control value. The format is in vivo. As to conditions: soybean seeds, 20 days after. On the procedure:
In a rotary seed treatment machine (trade name: HEGE11, manufactured by WINTERSTEIGER), soybean seeds (variety: “Hatayutaka”) were treated by smearing treatment using the flowable formulation of the present bacterial strain obtained in Formulation Example 19 and a chemical liquid wherein ipconazole was dissolved in acetone/Tween 20 (weight ratio=95:5) and diluted with water, so that the soybean seeds retain the present bacterial strain and the compound in the amount shown in Table 5.
Cultivation was carried out in a greenhouse under irrigation (“treated compartment”). The plants were investigated 20 days after for the number of diseased plants, and the disease incidence was calculated by the following “Equation 1”. Also, similar procedures were conducted using untreated soybean seeds, instead of the treated soybean seeds, as described above for the treated compartment (“untreated compartment”). The plants were investigated 20 days after for the number of diseased plants, and the disease incidence was calculated by the following “Equation 1”. The control value of the treated compartment was calculated by the following equation “Equation 2”, based on the disease incidences of the treated compartment and the untreated compartment.
Disease incidence (%)=100×(number of diseased plant/total number of seeded seeds) Equation 1 […]

[3] abbreviates: compound alone 0.005 g/Kg seeds.

As for `CC(C)(C)C(O)C(Oc1ccc(Cl)cc1)n1cncn1` (stereo not shown) [Triadimenol], the “Controlling Effect (control value)” value is 33% in test [1] (setting [3]) and 42% in test [1] (compound alone 0.01 g/Kg seeds).

In the case of `Clc1ccc(C2(Cn3cncn3)CC(Br)CO2)c(Cl)c1` (stereo not shown) [Bromconazole], the “Controlling Effect (control value)” value in test [1] (setting [3]) is 17%; in test [1] (compound alone 0.01 g/Kg seeds), 33%.

For the molecule `OC(Cc1ccccc1Cl)(Cn1nc[nH]c1=S)C1(Cl)CC1` (stereo not shown) [Prothioconazole], the “Controlling Effect (control value)” value is reported as 42% in test [1] (setting [3]) and 50% in test [1] (compound alone 0.01 g/Kg seeds).

For `CC(C)(C)C(O)(CCc1ccc(Cl)cc1)Cn1cncn1` (stereo not shown) [Tebuconazole], the “Controlling Effect (control value)” value in test [1] (compound alone 0.01 g/Kg seeds) is on record as 25%; in test [1] (compound alone 0.02 g/Kg seeds) it was 33%.

As for `CC(C)C1CCC(Cc2ccc(Cl)cc2)C1(O)Cn1cncn1` (stereo not shown) [Ipconazole], the “Controlling Effect (control value)” value is recorded as 27% in test [2] (setting [3]) and 33% in test [2] (compound alone 0.01 g/Kg seeds).

For the molecule `CC1(C)CCC(=Cc2ccc(Cl)cc2)C1(O)Cn1cncn1` (stereo not shown) [Triticonazole], the “Controlling Effect (control value)” value came out at 17% in test [1] (setting [3]) and 25% in test [1] (compound alone 0.01 g/Kg seeds).

In the case of `CC1(C)CCC(Cc2ccc(Cl)cc2)C1(O)Cn1cncn1` (stereo not shown) [Metconazole], the “Controlling Effect (control value)” value in test [1] (compound alone 0.0005 g/Kg seeds) is 25%; in test [1] (compound alone 0.001 g/Kg seeds), 33%.

Regarding `CC1COC(Cn2cncn2)(c2ccc(Oc3ccc(Cl)cc3)cc2Cl)O1` (stereo not shown) [Difenoconazole], the “Controlling Effect (control value)” value in test [1] (compound alone 0.0025 g/Kg seeds) is listed as 33%; in test [1] (setting [3]) it was 58%.
